Among the data in patent US20100144733A1, “Compounds, compositions and methods comprising heteroaromatic derivatives” (Institute for OneWorld Health, priority 2008, published 2010) are IC50 values, retold here.

Where two headings read alike, the source gives them in different places.

The target of one assay is T1, CFTR (Homo sapiens, UniProt P13569).
T1 construct: endogenous in cells; host or cells: T84 human colonic cells (ECACC)
The assay can be described thus: T84 assay (FLIPR membrane potential dye, forskolin/IBMX-stimulated CFTR channel activity). It is filed as cell-based. The method in brief: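 Fluorescence from a membrane potential dye in T84 monolayers (HBSS with 10 mM Hepes) is followed each second for 150 s. Cells are exposed to test compound during the 45 min dye loading, then challenged with forskolin (10 μM) and IBMX (100 μM) to open CFTR. Inhibitors suppress the depolarization-driven fluorescence increase.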

The next assay concerns the target T2, CHO-CFTR cell line (Homo sapiens, UniProt P13569).
T2 construct: expressed in transfected cells; host or cells: CHO (CHO-CFTR cell line)
Description: CHO-CFTR assay (FLIPR assay, same conditions as the T84 assay). It is filed as cell-based. To be noted: imidazole and triazole-containing compounds.

The mark [1] stands for this setting: imidazole and triazole-containing compounds (Tables 13, 14, 14′), read-out: IC50 (μM) (T84 assay).
The mark [2] stands for this setting: oxadiazole-containing compounds (a series), average of at least 2 runs unless annotated n = 1, read-out: IC50.

T1 sequence (P13569 whole entry): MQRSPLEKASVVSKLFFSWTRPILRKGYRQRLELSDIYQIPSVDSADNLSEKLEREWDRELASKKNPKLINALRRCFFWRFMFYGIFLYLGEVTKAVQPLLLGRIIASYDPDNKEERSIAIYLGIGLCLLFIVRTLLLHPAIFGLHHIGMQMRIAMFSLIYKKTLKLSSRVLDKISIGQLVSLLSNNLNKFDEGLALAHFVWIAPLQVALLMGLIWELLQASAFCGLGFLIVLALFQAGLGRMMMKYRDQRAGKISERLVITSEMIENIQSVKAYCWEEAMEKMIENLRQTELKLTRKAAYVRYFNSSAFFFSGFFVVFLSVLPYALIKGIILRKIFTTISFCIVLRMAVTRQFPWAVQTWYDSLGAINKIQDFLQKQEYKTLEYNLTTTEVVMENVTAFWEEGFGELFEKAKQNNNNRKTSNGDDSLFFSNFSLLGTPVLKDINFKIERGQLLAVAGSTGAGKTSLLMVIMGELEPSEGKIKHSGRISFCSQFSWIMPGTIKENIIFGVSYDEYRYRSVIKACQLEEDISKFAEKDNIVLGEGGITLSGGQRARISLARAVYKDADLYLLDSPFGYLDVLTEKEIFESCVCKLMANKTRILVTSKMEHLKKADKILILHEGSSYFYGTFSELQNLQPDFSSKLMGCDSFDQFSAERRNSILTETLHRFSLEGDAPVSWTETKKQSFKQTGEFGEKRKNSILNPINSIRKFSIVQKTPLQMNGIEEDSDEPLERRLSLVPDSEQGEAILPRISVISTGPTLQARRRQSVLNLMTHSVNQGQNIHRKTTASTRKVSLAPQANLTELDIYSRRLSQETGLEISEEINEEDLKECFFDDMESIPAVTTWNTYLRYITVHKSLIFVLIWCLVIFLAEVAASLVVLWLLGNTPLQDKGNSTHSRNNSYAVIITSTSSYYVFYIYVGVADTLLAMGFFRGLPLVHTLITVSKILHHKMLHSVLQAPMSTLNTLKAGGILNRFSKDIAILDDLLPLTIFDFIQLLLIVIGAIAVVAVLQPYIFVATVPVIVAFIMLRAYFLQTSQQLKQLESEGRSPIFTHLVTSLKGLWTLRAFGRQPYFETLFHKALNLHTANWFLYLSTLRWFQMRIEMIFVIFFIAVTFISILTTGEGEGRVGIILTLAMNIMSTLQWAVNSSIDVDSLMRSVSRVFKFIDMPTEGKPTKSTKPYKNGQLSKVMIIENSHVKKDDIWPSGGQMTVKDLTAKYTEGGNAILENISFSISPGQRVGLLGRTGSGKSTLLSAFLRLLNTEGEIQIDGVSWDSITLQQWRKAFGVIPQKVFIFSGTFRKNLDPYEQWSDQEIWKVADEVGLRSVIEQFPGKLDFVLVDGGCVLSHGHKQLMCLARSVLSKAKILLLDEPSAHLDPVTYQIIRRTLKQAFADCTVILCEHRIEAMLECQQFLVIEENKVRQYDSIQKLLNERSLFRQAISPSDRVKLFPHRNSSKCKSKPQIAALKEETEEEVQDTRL
T2 sequence (P13569 whole entry): as above

What is called IC50 is the point on the concentration scale where inhibition reaches its midpoint. On to `O=C(c1ncn(-c2cc(Cl)c(O)c(Cl)c2)n1)N(Cc1ccccc1)Cc1ccc(Oc2ccccc2)cc1` [80i, N-benzyl-1-(3,5-dichloro-4-hydroxyphenyl)-N-(4-phenoxybenzyl)-1H-1,2,4-triazole-3-carboxamide], for which the values for the IC50 at CFTR (setting [1]) and against CHO-CFTR cell line were 4.4 µM and 13.3 µM, respectively. For `O=C(NCc1ccc(Oc2ccc(OC(F)(F)F)cc2)cc1)c1ncn(-c2cc(Cl)c(O)c(Cl)c2)n1` [66i, 1-(3,5-dichloro-4-hydroxyphenyl)-N-(4-(4-(trifluoromethoxy)phenoxy)benzyl)-1H-1,2,4-triazole-3-carboxamide] the same measures were 3.2 µM and 11.3 µM. Consider `CC(C)(C)CCN(Cc1ccc(C(C)(C)C)cc1)C(=O)c1ncn(-c2cc(Cl)c(O)c(Cl)c2)n1` [106i, N-(4-tert-butylbenzyl)-1-(3,5-dichloro-4-hydroxyphenyl)-N-(3,3-dimethylbutyl)-1H-1,2,4-triazole-3-carboxamide], for which the IC50 was 1.8 µM at CFTR (setting [1]) and 13.1 µM against CHO-CFTR cell line.

For the molecule `O=C(c1ncn(-c2cc(Cl)c(O)c(Cl)c2)n1)N(Cc1ccccc1)Cc1ccc(Cl)c(Cl)c1` [83i, N-benzyl-1-(3,5-dichloro-4-hydroxyphenyl)-N-(3,4-dichlorobenzyl)-1H-1,2,4-triazole-3-carboxamide], the values for the concentration for half-maximal inhibition (IC50) at CFTR (setting [1]) and against CHO-CFTR cell line were 3.22 µM and 14.3 µM, respectively.

Consider `CON(Cc1cccc(C(F)(F)F)c1)C(=O)c1ncn(-c2cc(Cl)c(O)c(Cl)c2)n1` [124i, 1-(3,5-dichloro-4-hydroxyphenyl)-N-methoxy-N-(3-(trifluoromethyl)benzyl)-1H-1,2,4-triazole-3-carboxamide], for which the results for the IC50 on CFTR (setting [1]) and at CHO-CFTR cell line were 8.22 µM and 6.03 µM, respectively. For `O=C(c1ncn(-c2cc(Cl)c(O)c(Cl)c2)n1)N(O)Cc1ccc(Oc2ccccc2)cc1` [131i, 1-(3,5-dichloro-4-hydroxyphenyl)-N-hydroxy-N-(4-phenoxybenzyl)-1H-1,2,4-triazole-3-carboxamide], the IC50 at CFTR (setting [1]) came out at 4.87 µM; at CHO-CFTR cell line, 7.45 µM. For `Oc1c(Cl)cc(-n2cnc(C(O)(c3cccc(Cl)c3)c3cccc(Cl)c3)n2)cc1Cl` [53i, 4-(3-(bis(3-chlorophenyl)(hydroxy)methyl)-1H-1,2,4-triazol-1-yl)-2,6-dichlorophenol] the same measures were 13 µM and 4.27 µM. As to `Oc1c(Cl)cc(-n2cnc(C(O)(c3cccc(F)c3)c3cccc(F)c3)n2)cc1Cl` [54i, 4-(3-(bis(3-fluorophenyl)(hydroxy)methyl)-1H-1,2,4-triazol-1-yl)-2,6-dichlorophenol], the concentration for half-maximal inhibition (IC50) is 22.9 µM on CFTR (setting [1]) and 22.7 µM on CHO-CFTR cell line. Molecule `O=C(NCc1ccc(Oc2cc(C(F)(F)F)cc(C(F)(F)F)c2)cc1)c1ncn(-c2cc(Cl)c(O)c(Cl)c2)n1` [62i, N-(4-(3,5-bis(trifluoromethyl)phenoxy)benzyl)-1-(3,5-dichloro-4-hydroxyphenyl)-1H-1,2,4-triazole-3-carboxamide] came in with an IC50 against CHO-CFTR cell line of 8.76 µM. `CN(C)c1cccc(Oc2ccc(CNC(=O)c3ncn(-c4cc(Cl)c(O)c(Cl)c4)n3)cc2)c1` [64i, 1-(3,5-dichloro-4-hydroxyphenyl)-N-(4-(3-(dimethylamino)phenoxy)benzyl)-1H-1,2,4-triazole-3-carboxamide] registered an IC50 against CHO-CFTR cell line of 4.81 µM.

As for `CC(NC(=O)c1nc(-c2cc(Cl)c(O)c(Cl)c2)no1)c1ccc(Br)cc1` (stereo not drawn) [143a, N-(1-(4-bromophenyl)ethyl)-3-(3,5-dichloro-4-hydroxyphenyl)-1,2,4-oxadiazole-5-carboxamide], the concentration for half-maximal inhibition (IC50) at CFTR (setting [2]) was determined as 5.15 µM.

With `O=C(NCc1cccc(-c2ccccc2)c1)c1nc(-c2cc(Cl)c(O)c(Cl)c2)no1` [125a, N-(biphenyl-3-ylmethyl)-3-(3,5-dichloro-4-hydroxyphenyl)-1,2,4-oxadiazole-5-carboxamide], the half-inhibitory concentration (IC50) on CFTR (setting [2]) was determined as 6.76 µM.

In the case of `C=CCN(Cc1ccc(C(C)C)cc1)C(=O)c1ncn(-c2cc(Cl)c(O)c(Cl)c2)n1` [101i, N-allyl-1-(3,5-dichloro-4-hydroxyphenyl)-N-(4-isopropylbenzyl)-1H-1,2,4-triazole-3-carboxamide], the IC50 on CFTR (setting [1]) was 0.76 µM.
